{"source": "patent US6930203B2", "about": "“Gelling agents or thickeners” (Applied NanoSystems B.V., priority 2001, dated 2005)", "assay_type_in_all_cases": "physicochemical", "key": {"[1]": {"assay": "Cold gelation: addition of a solution of the gelling agent (10% in NMP, 0.05 ml) to an organic solution (0.5 ml)", "set-up": "key: g = gelation; s = soluble; p = precipitates; c = crystallizes; ns = not soluble; v = viscous; g* = unstable gel, precipitates; cg = crystalline gel", "description": "(§1) Preferred examples include aromatic and nonaromatic hydrocarbons, alcohols, ethers, esters, aldehydes, alkanoic acids, epoxides, amines, halogenated hydrocarbons, silicon oils, vegetable oils, phosphoric esters, sulfoxides, water and mixtures thereof. In order to obtain a gel, the gelling agent or thickener is preferably mixed with the composition to be transformed to a gel in an amount of between 0.01 and 50 wt. %, based on the weight of the composition. In a preferred embodiment, the mixture of the gelling agent or thickener and the composition is heated to allow for an even better gel formation or thickening. Typically, the heating will involve raising the temperature of the mixture to about 30-175° C. until a clear solution is obtained. In an alternative embodiment, the gelling agent is first dissolved in a polar or apolar solvent and then added to or sprayed into a composition or solvent to be converted into a gel.\nAddition of a solution of the gelling agent (10% in NMP, 0.05 ml) to an organic solution (0.5 ml, “cold gelation”)"}, "[2]": {"assay": "Phase diagram, dropping ball method", "details": "in cyclohexane, silicon oil and p-xylene", "procedure": "FIG. 1 depicts a phase diagram of 5 (C6-Glu-C6) and 15 (C12-Glu-C12) determined with the dropping ball method.\nPhase Diagram of 5 (C6-Glu-C6) and 15 (C12-Glu-C12)) Dropping Ball Method)\nThe phase diagram of 5 (C6-Glu-C6) and 15 (C12-Glu-C12) was determined (see FIG. 1) by using the dropping ball method (A. Takashi, M. Sakai, T. Kato, Polym. J., 12 (1980) 335-341, F. S. Schoonbeek, J. H. van Esch, R. Hulst, R. M. Kellogg, B. L. Feringa, Chem. Eur. J., 6 (2000) 2633-2643)."}, "[3]": {"assay": "Maximum gelator concentration", "description": "Maximum gelator concentration of 5 (C6-Glu-C6) and 15 (C12-Glu-C12)"}, "[4]": {"assay": "Gelation of N,N′-dialkyladaramides (1%) in mixtures of solvents", "set-up": "key: g = gelation; s = soluble; p = precipitates; c = crystallizes; ns = not soluble; v = viscous; g* = unstable gel, precipitates; cg = crystalline gel", "details": "1% gelling agent", "description": "as §1\nGelation of N,N′-dialkyladaramides (1%) in Mixtures of Solvents"}, "[5]": {"assay": "Solvent scope of N,N′-dialkylaldaramides (1%) or N,N′-dialkylpentaramides (1%): gelation/solubility behaviour in solvents", "set-up": "key: g = gelation; s = soluble; p = precipitates; c = crystallizes; ns = not soluble; v = viscous; g* = unstable gel, precipitates; cg = crystalline gel", "details": "1% gelling agent"}}, "data": [{"smiles": "O=C(NC1CCCCCCCCCCC1)[C@@H](O)[C@@H](O)[C@H](O)[C@@H](O)C(=O)NC1CCCCCCCCCCC1", "note": "[Example 15, dicyclododecyl D-glucaramide]", "values": [{"measurement": "Cold gelation in 1,2-dichloroethane", "setting": "[1]; 0.05 ml added to 0.5 ml 1,2-dichloroethane", "value": "c"}, {"measurement": "Cold gelation in Acetone", "setting": "[1]; 0.05 ml added to 0.5 ml Acetone", "value": "cg"}, {"measurement": "Cold gelation in Acetonitril", "setting": "[1]; 0.05 ml added to 0.5 ml Acetonitril", "value": "g"}, {"measurement": "Cold gelation in Chloroform", "setting": "[1]; 0.05 ml added to 0.5 ml Chloroform", "value": "s"}, {"measurement": "Cold gelation in Heptane", "setting": "[1]; 0.05 ml added to 0.5 ml Heptane", "value": "p"}, {"measurement": "Cold gelation in Hexane", "setting": "[1]; 0.05 ml added to 0.5 ml Hexane", "value": "p"}, {"measurement": "Cold gelation in Toluene", "setting": "[1]; 0.05 ml added to 0.5 ml Toluene", "value": "g"}, {"measurement": "Cold gelation in benzaldehyde", "setting": "[1]; 0.05 ml added to 0.5 ml benzaldehyde", "value": "s"}, {"measurement": "Cold gelation in cyclohexane", "setting": "[1]; 0.05 ml added to 0.5 ml cyclohexane", "value": "g"}, {"measurement": "Cold gelation in diethyl ether", "setting": "[1]; 0.05 ml added to 0.5 ml diethyl ether", "value": "g"}, {"measurement": "Cold gelation in ethylacetate", "setting": "[1]; 0.05 ml added to 0.5 ml ethylacetate", "value": "p"}, {"measurement": "Cold gelation in methyl laurate", "setting": "[1]; 0.05 ml added to 0.5 ml methyl laurate", "value": "g"}, {"measurement": "Cold gelation in n-butyl acetate", "setting": "[1]; 0.05 ml added to 0.5 ml n-butyl acetate", "value": "g"}, {"measurement": "Cold gelation in silicon oil", "setting": "[1]; 0.05 ml added to 0.5 ml silicon oil", "value": "g"}, {"measurement": "Cold gelation in tetrahydrofuran", "setting": "[1]; 0.05 ml added to 0.5 ml tetrahydrofuran", "value": "c"}, {"measurement": "Correlation between Tm^−1 and the logarithm of the mole fraction", "setting": "[2]", "value": "linear correlation"}, {"measurement": "Maximum gelator concentration in 1,2-dichloroethane", "setting": "[3]; 1,2-dichloroethane", "value": "<50", "unit": "%"}, {"measurement": "Maximum gelator concentration in Toluene", "setting": "[3]; Toluene", "value": "<50", "unit": "%"}, {"measurement": "Maximum gelator concentration in cyclohexane", "setting": "[3]; cyclohexane", "value": "<5", "unit": "%"}, {"measurement": "Maximum gelator concentration in methyl laurate", "setting": "[3]; methyl laurate", "value": "<5", "unit": "%"}, {"measurement": "Maximum gelator concentration in n-butylacetate", "setting": "[3]; n-butylacetate", "value": "<50", "unit": "%"}, {"measurement": "Maximum gelator concentration in silicon oil (Dow Corning 702)", "setting": "[3]; silicon oil (Dow Corning 702)", "value": "<50", "unit": "%"}, {"measurement": "Gelation in cyclohexane", "setting": "[4]; Cyclohexane", "value": "g"}, {"measurement": "Gelation in Dioxane", "setting": "[4]; Dioxane", "value": "cg"}, {"measurement": "Gelation in H2O", "setting": "[4]; H2O", "value": "ns"}, {"measurement": "Gelation in cyclohexane/dioxane 1:1", "setting": "[4]; cyclohexane/dioxane 1:1", "value": "cg"}, {"measurement": "Gelation in dioxane/H2O 1:1", "setting": "[4]; dioxane/H2O 1:1", "value": "g"}, {"measurement": "Gelation in dioxane/H2O 1:2", "setting": "[4]; dioxane/H2O 1:2", "value": "ns"}, {"measurement": "Gelation in dioxane/H2O 2:1", "setting": "[4]; dioxane/H2O 2:1", "value": "cg"}, {"measurement": "Gelation in dioxane/H2O 3:1", "setting": "[4]; dioxane/H2O 3:1", "value": "cg"}, {"measurement": "Gelation/solubility behaviour in 1,2-dichloroethane", "setting": "[5]; 1,2-dichloroethane", "value": "g"}, {"measurement": "Gelation/solubility behaviour in 2-methoxyethanol", "setting": "[5]; 2-methoxyethanol", "value": "c"}, {"measurement": "Gelation/solubility behaviour in 2-octanol", "setting": "[5]; 2-octanol", "value": "s"}, {"measurement": "Gelation/solubility behaviour in 2-propanol", "setting": "[5]; 2-propanol", "value": "c"}, {"measurement": "Gelation/solubility behaviour in Cyclohexane", "setting": "[5]; Cyclohexane", "value": "g"}, {"measurement": "Gelation/solubility behaviour in Dimethylsulfoxide", "setting": "[5]; Dimethylsulfoxide", "value": "cg"}, {"measurement": "Gelation/solubility behaviour in Ethanol", "setting": "[5]; Ethanol", "value": "cg"}, {"measurement": "Gelation/solubility behaviour in Hexadecane", "setting": "[5]; Hexadecane", "value": "ns"}, {"measurement": "Gelation/solubility behaviour in Toluene", "setting": "[5]; Toluene", "value": "g"}, {"measurement": "Gelation/solubility behaviour in Water", "setting": "[5]; Water", "value": "ns"}, {"measurement": "Gelation/solubility behaviour in methyl benzoic acid", "setting": "[5]; methyl benzoic acid", "value": "g"}, {"measurement": "Gelation/solubility behaviour in methyl laurate", "setting": "[5]; methyl laurate", "value": "g"}, {"measurement": "Gelation/solubility behaviour in n-butylacetate", "setting": "[5]; n-butylacetate", "value": "g"}, {"measurement": "Gelation/solubility behaviour in p-xylene", "setting": "[5]; p-xylene", "value": "g"}, {"measurement": "Gelation/solubility behaviour in silicon oil", "setting": "[5]; silicon oil", "value": "g"}]}]}
